Assay results taken from patent US20040242498A1, “CXCR3 antagonists” (priority 2003, published 2004).
Entries after “also recorded” stand apart in the source; their conditions may differ.

Legend:
[1] = Excretion of compound 101 and metabolites in urine and bile of bile duct cannulated rats; assay type: in vivo, Sprague Dawley rat; details: bile duct cannulated male rats
Description: In addition, compound 101 was administered intravenously or orally to bile duct cannulated male Sprague Dawley rats. Urine and bile samples were collected over a period of 24 hours and analyzed by liquid chromatography/mass spectrometry. Compound 101 was detected in a small amount (<1% of the administered dose) in urine and in bile. In urine, compound 103, the pyridyl-N-oxide of compound 101, was detected. Five metabolites, compounds 103, 105, 107, 109 and 111, were all detected in bile excretions; compound 111 was detected in a trace amount in bile. A proposed metabolic pathway for compound 101 is provided at FIG. 3.
Overall, N-oxidation and O-deethylation occurred to similar extents. The O-deethyl metabolite was detected mainly as a glucuronide conjugate, compound 109. […] Only trace amounts of the glucuronide of the N-oxidized O-deethyl metabolite, compound […], were detected. The detected metabolites, and the relative amounts thereof, in urine and bile agree with the metabolites detected with rat liver microsomal fractions and rat hepatocytes in vitro as discussed above.

[2] = Metabolites of compound 101 with rat liver microsomal fractions; assay type: in vitro ADME, Sprague Dawley rat; details: formed from compound 101 (10 μM), 105 min
Description: (§1) Compound 101 was contacted with microsomal fractions from Sprague Dawley rat, dog (beagle), rhesus monkey and human liver to detect and identify resulting metabolites. In particular, Compound 101 in PBS (10 μM) was incubated in a mixture of microsomal protein (1 mg/mL), EDTA (1.0 mM) and NADPH (5 mM) at 37° C. for a total of 105 min. The reaction was stopped by the addition of acetonitrile containing 0.2% formic acid (400 μL). Samples were centrifuged and the supernatant was subjected to LCMS analysis.
(§2) Compound 103, the pyridyl-N-oxide product of compound 101, was detected following contact with the microsomal fractions from all species. Compound 105, the deethylation product of compound 101, was also detected following contact with the microsomal fractions from all species. […] With human microsomal fractions, an amount of compound 107, the deethylation and pyridyl-N-oxide product of compound 101, was also detected.

[3] = Metabolites of compound 101 with human liver microsomal fractions; assay type: in vitro ADME; details: formed from compound 101 (10 μM), microsomal protein 1 mg/mL, NADPH, 37° C., 105 min, LCMS
Description: as §1, §2

[4] = Metabolites of compound 101 with dog liver microsomal fractions and hepatocytes; assay type: in vitro ADME, dog (beagle); details: formed from compound 101; liver microsomal fractions (10 μM, 105 min) or cryopreserved hepatocytes
Description: as §1, §2
(§3) Compound 101 was also incubated with intact dog and monkey liver cells (cryopreserved hepatocytes). Following incubation, the formation of compound 109, the glucuronide adduct of compound 105, was detected.

[5] = Metabolites of compound 101 with rhesus monkey liver microsomal fractions and hepatocytes; assay type: in vitro ADME; details: formed from compound 101; liver microsomal fractions (10 μM, 105 min) or cryopreserved hepatocytes
Description: as §1, §2, §3

[6] = test system: any cytochrome p450 isoform, including 3A4; assay: Inhibition or induction of cytochrome p450 isoforms by compound 101; assay type: in vitro ADME, human
[7] = after compound 101 intravenously or orally, 24 hours, LC/MS
[8] = compound 101 intravenously or orally, 24 hours collection

Compound | Detection in bile [1, 7] | Detection in urine [1, 7] | Metabolic Forms of Compound 101: Rat (in vivo), excreta in which detected [1, 8] | Metabolic Forms of Compound 101: Rat (in vitro) [2] | Metabolic Forms of Compound 101: Human [3] | Metabolic Forms of Compound 101: Dog [4] | Metabolic Forms of Compound 101: Monkey [5] | Amount detected in urine and in bile, of the administered dose (Rat in vivo) [1, 8] | Inhibition or induction of cytochrome p450 isoforms [6]
CCOc1ccc(-n2c([C@@H](C)N(Cc3ccc[n+]([O-])c3)C(=O)Cc3ccc(OC(F)(F)F)cc3)nc3ncccc3c2=O)cc1 [Compound 103] | detected | detected | urine & bile | approximately equal amounts; also recorded: major | more compound 103 than compound 105; also recorded: major | more compound 103 than compound 105; also recorded: major | more compound 103 than compound 105; also recorded: major | – | –
CCOc1ccc(-n2c([C@@H](C)N(Cc3cccnc3)C(=O)Cc3ccc(OC(F)(F)F)cc3)nc3ncccc3c2=O)cc1 [Compound 101] | – | – | – | – | – | – | – | <1% | little or no inhibition or induction
C[C@H](c1nc2ncccc2c(=O)n1-c1ccc(OC2OC(C(=O)O)C(O)C(O)C2O)cc1)N(Cc1ccc[n+]([O-])c1)C(=O)Cc1ccc(OC(F)(F)F)cc1 (stereo partly shown) [Compound 111] | trace amount | – | bile (traces) | – | – | – | – | – | –
C[C@H](c1nc2ncccc2c(=O)n1-c1ccc(OC2OC(C(=O)O)C(O)C(O)C2O)cc1)N(Cc1cccnc1)C(=O)Cc1ccc(OC(F)(F)F)cc1 (stereo partly shown) [Compound 109] | detected; also recorded: trace amounts | – | bile | – | – | detected; also recorded: minor | detected; also recorded: minor | – | –
C[C@H](c1nc2ncccc2c(=O)n1-c1ccc(O)cc1)N(Cc1cccnc1)C(=O)Cc1ccc(OC(F)(F)F)cc1 [Compound 105] | detected | – | bile | approximately equal amounts; also recorded: major | detected; also recorded: minor | detected; also recorded: minor | detected; also recorded: minor | – | –
C[C@H](c1nc2ncccc2c(=O)n1-c1ccc(O)cc1)N(Cc1ccc[n+]([O-])c1)C(=O)Cc1ccc(OC(F)(F)F)cc1 [Compound 107] | detected; also recorded: significant amounts | – | bile | – | detected; also recorded: minor | – | minor | – | –
